Measured values as given in patent US20170157103A1, “METHODS OF TREATING DIFFUSE LARGE B-CELL LYMPHOMA USING 3-(4-AMINO-1-OXOISOINDOLIN-2-YL)PIPERIDINE-2,6-DIONE” (Celgene Corporation, priority 2015, published 2017).

Columns and labels:
[1] = test system: relapsed or refractory diffuse large B-cell lymphoma; experiment: Clinical trial of lenalidomide vs control in relapsed or refractory DLBCL patients, subtype determined by NanoString; assay type: in vivo, human; settings: for Median overall survival / Median progression free survival: relapsed or refractory DLBCL patients
From the text: DLBCL lymph-node biopsies were formalin fixed and paraffin embedded (FFPE) similarly to that described in Scott et al., Blood 2014 123(8) 1214-1217, the disclosure of which is incorporated by reference herein. Nucleic acids obtained from the tissues were extracted using the QIAGEN AllPrep DNA/RNA FFPE Kit, with deparaffinization achieved using the QIAGEN Deparaffinization Solution, according to the manufacturer's instructions. The RNA was quantitated using spectrophotometry (NanoDrop, Thermo Science, DE). Gene expression on approximately 200 nanograms of RNA was used to determine gene expression levels by means of NanoString technology (NanoString Technologies, WA). The total RNA was hybridized to the custom codesets at 65° C. overnight. The reaction was processed on the nCounter™ Prep Station and gene expression data was then acquired on the nCounter™ Digital Analyzer.
(§1) This clinical benefit is observed when subtype is determined by the Affymetrix test (FIG. 1) or by the NanoString test (FIG. 2).

[2] = test system: relapsed or refractory diffuse large B-cell lymphoma; experiment: Clinical trial of lenalidomide vs control in relapsed or refractory DLBCL patients, subtype determined by Affymetrix; assay type: in vivo, human; settings: for Median overall survival / Median progression free survival: relapsed or refractory DLBCL patients
From the text: DLBCL lymph-node biopsies were either snap frozen or formalin fixed and paraffin embedded similarly to that described by Scott et al., Blood 2014 123(8) 1214-1217, the disclosure of which is incorporated herein in its entirety. Messenger RNA was purified and reverse transcribed into cDNA.
DNA microarray analysis of gene expression was done essentially as described below. The cDNA clones on the Lymphochip microarray are available from Research Genetics. Fluorescent images of hybridized microarrays were obtained using a GenePix 4000 microarray scanner (Axon Instruments). Images were analysed with ScanAlyze (M. Eisen; http://www.microarrays.org/software), and fluorescence ratios (along with numerous quality control parameters; see ScanAlyze manual) were stored in a custom database. Single spots or areas of the array with obvious blemishes were flagged and excluded from subsequent analyses. Fluorescence ratios were calibrated independently for each array by applying a single scaling factor to all fluorescent ratios from each array; this scaling factor was computed so that the median fluorescence ratio of well-measured spots on each array was 1.0.
All cDNA microarray analyses were performed using poly-(A)^+ mRNA (Fast Track, Invitrogen). In each experiment, fluorescent cDNA probes were prepared from an experimental mRNA sample (Cy5-labelled) and a control mRNA sample (Cy3-labelled) isolated from a pool of nine lymphoma cell lines (Raji, Jurkat, L428, OCI-Ly3, OCI-Ly8, OCI-Lyl, SUDHL5, SUDHL6 and WSU1). The use of a common control cDNA probe allows the relative expression of each gene to be compared across all samples.
All non-flagged array elements for which the fluorescent intensity in each channel was greater than 1.4 times the local background were considered well measured. The ratio values were log-transformed (base 2) and stored in a table (rows, individual cDNA clones; columns, single mRNA samples). Data for the genes were centered by subtracting (in log space) the median observed value, to remove any effect of the amount of RNA in the reference pool. This dataset contains 4,026 array elements. Hierarchical clustering was applied to both axes using the weighted pair-group method with centroid average as implemented in the program Cluster (M. Eisen; http://www.microarrays.org/software). The distance matrixes used were Pearson correlation for clustering the arrays and the inner product of vectors normalized to magnitude 1 for the genes. The results were analysed with Tree View (M. Eisen; http://www.microarrays.org/software).
as §1

[3] = ABC plus unclassified subtype (by Nanostring)
[4] = ABC plus unclassified subtype (by Affymetrix)

With `Nc1cccc2c1CN(C1CCC(=O)NC1=O)C2=O` (centres unmarked) [lenalidomide, 3-(4-amino-1-oxoisoindolin-2-yl)piperidine-2,6-dione] the “Clinical benefit compared to control as measured by progression free survival” value ([1]; ABC DLBCL subtype patients and unclassifiable patients, subtype by NanoString test (FIG. 2)) was “benefit”, the Median overall survival [1, 3] was 36.9/108.4 weeks and the “Median progression free survival” value [1, 3] was 6.6/82 weeks. The Median overall survival ([1]; ABC subtype (by Nanostring)) was 37/43.7 weeks, the “Median progression free survival” value ([1]; ABC subtype (by Nanostring)) was 6/27 weeks and the Median overall survival ([1]; GBC subtype (by Nanostring)) was 34.9/18 weeks. The “Median progression free survival” value ([1]; GBC subtype (by Nanostring)) was 9/8.7 weeks, the “Clinical benefit compared to control as measured by progression free survival” value ([2]; ABC DLBCL subtype patients and unclassifiable patients, subtype by Affymetrix test (FIG. 1)) was “benefit” and the Median overall survival [2, 4] was 16.3/33^ weeks. The “Median progression free survival” value [2, 4] was 6.3/9.1 weeks, the Median overall survival ([2]; ABC subtype (by Affymetrix)) was 18.6/108.4 weeks and the “Median progression free survival” value ([2]; ABC subtype (by Affymetrix)) was 6.2/82 weeks. For the same compound, the Median overall survival ([2]; GBC subtype (by Affymetrix)) was 20/30 weeks and the “Median progression free survival” value ([2]; GBC subtype (by Affymetrix)) was 7.1/13.2 weeks.
